Laboratory results from patent publication US4303659A, “Schistosomicidal compositions” (Pfizer Inc., priority 1979, dated 1981).
Like-named read-outs stand apart in the source and are kept apart here.

Test system: Puerto Rican strain of Schistosoma mansoni
Assay: Effectiveness in treatment of schistosomiasis in infected mice (worm kill after oral dosing, perfusion and liver count 14 days post treatment)
Type: in vivo
Conditions: 336 h, oral gavage
Method: Male mice are infected with 100 cercariae of Schistosoma mansoni and used 8-10 weeks post infection. The test compound(s) are suspended (at the desired concentration level) in a 10% solution of Cremophor EL in 0.2 M phosphate buffer at pH 7.0 (Cremophor EL is the registered trademark name of Badische Anilin und Soda-Fabrik of Ludwigshafen, West Germany for glycerol-polyethylene glycolricinoleate).
The resulting mixture is then administered to the mice by an oral gavage needle, using 0.3 ml. of the above suspension for a 30-gram animal. Fourteen days post treatment, the mice are killed by cervical dislocation and living worms are recovered from the blood vessels by perfusion. The liver is then removed and compressed between two glass plates, and the encapsulated (i.e., dead) worms are counted.
Effective doses required to kill 50% and 99% of male worms (i.e., ED50 and ED99 values, respectively) are calculated from the regression line of the dose response data.

| SMILES | ED50 (compound alone, dose to kill 50% of male worms) [mg/kg] | ED99 (compound alone, dose to kill 99% of male worms) [mg/kg] | ED50 (oxamniquine in combination with 25 mg./kg. of praziquantel, 50% of male worms killed) [mg/kg] | ED99 (oxamniquine in combination with 25 mg./kg. of praziquantel, 99% of male worms killed) [mg/kg] | ED50 (compound alone, dose to kill 50% of male worms, read-out: ED50) [mg/kg] | ED50 (praziquantel in combination with 12.5 mg./kg. of oxamniquine, 50% of male worms killed, read-out: ED50) [mg/kg] |
| --- | --- | --- | --- | --- | --- | --- |
| CC(C)NCC1CCc2cc(CO)c([N+](=O)[O-])cc2N1 (racemic) [Oxamniquine, dl-6-hydroxymethyl-2-isopropylaminomethyl-7-nitro-1,2,3,4-tetrahydroquinoline] | 39 | 89 | 8.6 | 16.6 |  |  |
| O=C(C1CCCCC1)N1CC(=O)N2CCc3ccccc3C2C1 (stereo not drawn) [Praziquantel, 2-cyclohexylcarbonyl-4-oxo-1,2,3,6,7,11b-hexahydro-4H-pyrazino [2,1a]isoquinoline] |  |  |  |  | 156 | 4.9 |
